Measurements taken from ChEMBL document CHEMBL3867467, “Discovery of indazole ethers as novel, potent, non-steroidal glucocorticoid receptor modulators” (Bioorg Med Chem Lett, 2016).

How the values were obtained:
in vivo [1] = details: Wistar, rat, iv, 1 umol/kg
Description: Clearance in Wistar rat at 1 umol/kg, iv through bolus administration by LC/MS/MS analysis

in vivo [2] = details: Wistar, rat, iv, 1 umol/kg; remark: listed apart in the source
Description: Volume of distribution at steady state in Wistar rat at 1 umol/kg, iv through bolus administration by LC/MS/MS analysis

in vivo [3] = details: Wistar, rat, iv, 1 umol/kg; remark: listed apart in the source
in vivo [4] = details: Wistar, rat, po, 10 umol/kg
in vivo [5] = details: Wistar, rat, po, 10 umol/kg; remark: listed apart in the source
in vivo [6] = details: Lewis, rat, po
Description: AUC in Lewis rat model of SCW-induced joint inflammation at anti-inflammatory ED50 administered via oral gavage once daily for 8 days measured 24 hrs post last dose on day 8 by LC/MS/MS analysis

in vitro [7] = details: human, plasma
Description: Fraction unbound in human plasma at 10 uM

in vitro [8] = details: rat, plasma
Description: Fraction unbound in rat plasma at 10 uM

[9] = Intrinsic clearance in rat hepatocytes assessed per million cells; assay type: ADME, cell-based, Hepatocyte; details: read-out: CLH

Row | clearance (in vivo [1]) [mL/min/kg] | Vd (in vivo [2]) [L/kg] | half-life (in vivo [3]) [h] | AUC(0-inf) (in vivo [4]) [µM·h] | bioavailability (in vivo [5]) [%] | AUC (in vivo [6]) [µM·h] | fraction unbound at 10 µM (in vitro [7]) | fraction unbound at 10 µM (in vitro [8]) | hepatocyte CLint [9] [µL/min/1e6 cells] | SMILES
1 | 19 | 14 | 11 | 7.1 | 53 | 0.08 | 0.0001 | 0.00011 | – | C[C@H](NC(=O)C(F)(F)F)[C@H](Oc1ccc2c(cnn2-c2ccc(F)cc2)c1)c1ccccc1
2 | 28 | 15 | – | 5.9 | 66 | 0.035 | 0.0015 | 0.0063 | – | COc1ccc([C@@H](Oc2ccc3c(cnn3-c3ccc(F)cc3)c2)[C@H](C)NC(=O)C2CC2)cn1
3 | 54 | 0.63 | 0.27 | 0.35 | – | 0.59 | > 0.41 | 0.31 | 27 | C[C@]12C=CC(=O)C=C1CC[C@@H]1[C@@H]2[C@@H](O)C[C@@]2(C)[C@H]1CC[C@]2(O)C(=O)CO [PREDNISOLONE]
